In patent publication US20210380952A1, “Method to Produce Virus in Cultured Cells Supplemented With Alpha-Ketoglutarate” (THE TRUSTEES OF PRINCETON UNIVERSITY, priority 2012, published 2021):
Read-outs that look alike come from different tables or passages of the source.

How the values were obtained:
[1] = system: VZV; assay: Yield of cell-free VZV from infected MRC5 cells, plaque assay on ARPE-19 cells; assay type: cell-based, varicella zoster virus; conditions: for VZV yield, factor of increase: MOI 1:250, 72 h; for VZV yield relative to no treatment (NT): with 10 μM α-T, 6 h after infection, HSA and DHA 25 μM, AA 100 μM, MOI 1:100, 72 hours post infection
[2] = system: AD169 strain of HCMV; assay type: cell-based, human cytomegalovirus; conditions: for HCMV yield, fold change relative to no treatment (NT): MRC5, 0.5 IU/cell, 96 h after infection
Experimental: Cells were infected with the AD169 strain of HCMV at a multiplicity of 0.5 infectious units/cell, and immediately following a 2-hour adsorption period, cells were fed with medium (Dulbecco's Modified Eagle Medium, DMEM) containing 10% fetal calf serum plus various fatty acids, cholesterol and carbonyl scavenging compound. At 96 hours post infection, infectious virus in the medium was assayed by fluorescent focus assay using antibody to the HCMV IE1 protein.
Briefly, About 90% confluent MRC5 human fibroblasts were infected with HCMV at a multiplicity of 0.5 IU/cell. Two hours after infection, medium was replaced with fresh medium containing 10% fetal calf serum and either of oleic acid (OA, up to about 100 μM), linoliec acid (LA, up to about 100 μM), a-linolenic acid (LLA, up to about 100 μM), eicosapentaenoic acid (EPA, up to about 75 μM), or docosahexaenoic acid (DHA, up to about 50 μM). The experiment was also performed in the presence of either aminoguanidine (AG, up to about 250 μM) or cholesterol (chol., up to about 13 μM). Virus production at 96 hours after infection was determined by fluorescent focus assay in MRC-5 cells and shown as a fold change relative to no treatment (NT) which was 5×10^5 infectious units. The fold-changes are the average of two independent infections.
Briefly, about 90% confluent MRC5 fibroblasts were infected with HCMV at a multiplicity of 0.5 IU/cell. Two hours after infection, medium was replaced with fresh medium containing 10% fetal calf serum and α-tocopherol (α-T) or aminoguanidine (AG) at indicated concentrations. Virus production at 96 h after infection was determined by fluorescent focus assay in which MRC-5 cells and shown as a fold change relative to no treatment (NT). The fold-changes are the average of two independent infections. Results are set out in FIG. 2.
MRC5 fibroblasts were infected with the AD169 strain of HCMV at a multiplicity of 0.5 infectious units/cell in glutamine/GlutaMAX-free DMEM containing 10% dialyzed FCS. The dialyzed serum was used to completely eliminate the glutamine in the culture medium. The cells received either 2 mM GlutaMAX, which served as a control, or 7 mM α-kg. At 96 hours post infection, infectious virus in the medium was assayed by fluorescent focus assay using antibody to the HCMV IE1 protein.

[3] = system: MRC5 cells; assay: Cytotoxicity evident upon visual inspection of treated infected cells; assay type: cell-based, human; conditions: 100 μM fatty acid; VZV-infected MRC5 cells
[4] = system: VZV; assay: Yield of cell-free VZV from infected MRC5 cells, plaque assay on ARPE-19 cells; assay type: cell-based, varicella zoster virus; conditions: for VZV yield, fold change relative to no treatment (NT): added 6 hpi; for VZV yield, fold change relative to no treatment (NT) / VZV yield relative to no treatment (NT): MOI 1:50, 72 h; for VZV yield relative to no treatment (NT): 25 μM fatty acid plus 10 μM αT, 6 h after infection, sonicated immediately
Experimental: For this test, MRC5 cells (passage 20-25) were seeded at a density of 300.000 cell/100 mm culture dish and grown in 15 ml of DMEM containing 10% fetal calf serum plus 2 mM GlutaMAX (GIBCO®, GlutaMAX™) at 35° C. A lipid mixture (LM-1, 1 ml/liter medium, Sigma Aldrich #L5146) was added to the cells either at the time of seeding or 1 day after seeding. Three days later, the culture medium was replaced with 10 ml growth medium containing 50 mM sucrose as a stabilizer. The cells were further incubated for 3 days and growth medium was replaced with fresh medium containing no sucrose. After cells reached confluence, they were infected with VZV by adding infected cells (1 infected cell/50 uninfected cells; infected cells were from a preparation frozen in a solution of 10% DMSO plus 90% fetal calf serum and stored in liquid nitrogen). At the time of infection, the cultures were re-fed with DMEM containing 10% fetal calf serum plus 2 mM glutamax. Arachidonic acid (AA)+alpha-tocopherol (αT) or DHA+αT were added at the indicated times. 72 hours after infection, cells were washed twice with PBS, and incubated in 10 ml of PBS containing 50 mM ammonium chloride for 50 minutes at 4° C. The cells were harvested and frozen in PSGC buffer (Harper et al., Arch Virol 143:1163-70, 1998) at −80° C. Infectious virus was subsequently quantified by plaque assay of sonicated cells on ARPE-19 cells (American Type Culture Collection). Results are set out in FIG. 3.
Briefly, in these repeat experiments, MRC5 cells were infected with VZV at an MOI=1:50. AA, DHA, and αT were added to the cells at 6 hpi as indicated. 72 hours after infection, the cells were harvested into PSGC buffer and frozen at −80° C. for later processing. After thawing, the cells were sonicated and the yield of cell free VZV quantified by standard plaque assay on ARPE-19 cells. Fold change relative to no treatment (NT) is shown. […] The fold-changes are the average of two independent infections.
In brief, MRC5 cells were infected with VZV at an MOI=1:50. Lipid mixture 1(LM-1) was added to the cells immediately after cell seeding. At 6 hours after infection, up to about 100 μM AA or […] was added to cells together with up to about 10 μM αT. 72 hours after infection, the cells were harvested into PSGC buffer and either frozen at −80° C. and sonicated later for the release of virus (frozen cells) or immediately sonicated after harvesting and supernatants containing the cell-free VZV were frozen at −80° C. (frozen sup.) prior to titration. Cell-free VZV yield was quantified by plaque assay on APRE-19 cells. Fold change relative to no treatment (NT) is shown. The numbers above the bars indicate the amount of virus obtained per ml in the corresponding treatment. The results are set out in FIG. 5.
Briefly, MRC5 cells were infected with VZV at an MOI=1:50. Six hours after infection cells were treated with indicated combinations of lipids plus 10 μM αT. Hexacosanoic acid (HSA) and octacosanoic acid (OSA) were dissolved in 20 mg/ml α-cyclodextin (Sigma-Aldrich) in PBS by sonication and added to a solution of 10 mg/ml fatty acid-free BSA (Sigma-Aldrich) in PBS (1:1, v/v) to give a stock concentration of 10 mM for each fatty acid. HSA, OSA, and DHA were used at 25 μM, and AA was used at 25 μM. Two sets of fatty acid concentrations was used for combination treatments: DHA, AA, and HSA was either added at concentrations of 25 μM, 100 μM, and 25 μM (high), or 10 μM, 50 μM, and 10 μM (low), respectively. 72 hours after infection, the cells were harvested into PSGC buffer, sonicated immediately and the yield of cell free VZV quantified by plaque assay on ARPE-19 cells. Fold change relative to no treatment (NT) is shown. The fold-changes are the average of two independent infections.
Briefly, MRC5 cells were grown in DMEM containing 10% fetal calf serum, 2 mM GlutaMAX) at 35° C. as described in the text. […]

[5] = additive alone in medium from 2 h after infection, OA, LA, LLA up to about 100 μM, EPA 75 μM, DHA 50 μM, AG 250 μM, chol. 13 μM
[6] = 25 μM fatty acid, absence of αT
[7] = fatty acid together with aminoguanidine (up to about 250 μM)

CC(C)CCC[C@@H](C)[C@H]1CC[C@H]2[C@@H]3CC=C4C[C@@H](O)CC[C@]4(C)[C@H]3CC[C@]12C [cholesterol]
VZV yield, factor relative to no treatment ([1]; 13 μM cholesterol, MOI 1:100, 72 hr after infection): increased the yield of VZV by a factor of about two
HCMV yield, fold change relative to no treatment (NT) [2, 5]: no effect on HCMV yield
HCMV yield, effect on the enhancing effects of fatty acids ([2]; cholesterol (up to about 13 μM) together with fatty acids, MRC5, 96 h after infection): did not improve, and in some cases inhibited

CC/C=C\C/C=C\C/C=C\C/C=C\C/C=C\C/C=C\CCC(=O)O [DHA, docosahexaenoic acid]
Cytotoxicity / cellular toxicity [3]: toxic in the absence or presence of αT
VZV yield, fold change relative to no treatment (NT) [4, 6]: about 1.5 fold
HCMV yield, fold change relative to no treatment (NT) [2, 5]: 4.6 fold

COC(=O)CCC(=O)C(=O)OC [α-kg, dimethyl-α-ketoglutarate]
VZV replication / titers ([1]; 1 mM α-kg in the absence of GlutaMAX, MOI 1:100, 72 h): unable to support virus replication
VZV replication / titers ([1]; 2.5 mM α-kg in the absence of GlutaMAX, MOI 1:100, 72 h): unable to support virus replication
VZV yield, fold increase relative to GlutaMAX (NT; 2 mM) ([1]; 7 mM α-kg alone, glutamine/GlutaMAX-free medium, MOI 1:50, added 6 hpi, 72 h): 3.4 fold
VZV replication, fold enhancement compared to the addition of 2 mM GlutaMAX ([1]; 7 mM α-kg in the absence of GlutaMAX, MOI 1:100, 72 h): 2.8 fold
VZV yield, fold increase ([1]; 7 mM α-kg in the presence of 2 mM GlutaMAX, MOI 1:100, added 6 h, 72 h): about 2.1 fold
Concentration required to optimally support the replication of VZV ([1]; MRC5, MOI 1:100, 72 h): > 2.5 mM
VZV yield, factor of increase ([1]; glutamine-free medium supplemented with dialyzed serum (10% dialyzed FCS)): ~9.7
VZV yield, factor of increase ([1]; glutamine/GlutaMAX-free medium containing normal serum (10% FCS)): ~3.7 fold
Production of cell-free HCMV, fold increase relative to 2 mM GlutaMAX control ([2]; 7 mM α-kg replacing glutamine, glutamine/GlutaMAX-free DMEM, 10% dialyzed FCS, 0.5 infectious units/cell, 96 hours post infection): 4.3 fold

N=C(N)NN [aminoguanidine]
HCMV yield, fold change relative to no treatment (NT) [2, 5]: about 2.6 fold

CCCCC/C=C\C/C=C\CCCCCCCC(=O)O [LA, linoleic acid]
HCMV yield, fold change relative to no treatment (NT) [2, 5]: had little effect on the yield
HCMV yield, fold change relative to no treatment (NT) [2, 7]: reduced

CCCCC/C=C\C/C=C\C/C=C\C/C=C\CCCC(=O)O [AA, arachidonic acid]
VZV yield, fold change relative to no treatment (NT) ([4]; 25 μM fatty acid in the presence of αT): increased the virus yield
VZV yield, fold change relative to no treatment (NT) [4, 6]: enhanced the yield of virus
VZV yield, fold change relative to no treatment (NT) ([4]; 100 μM fatty acid, absence of αT): inhibited virus production
VZV yield, fold change relative to no treatment (NT) ([1]; 100 μM fatty acid in the presence of αT, added 6 hpi, MOI 1:50, 72 h): 5 fold
VZV yield relative to no treatment (NT) [1]: elevated the yield of VZV

CCCCCCCCCCCCCCCCCCCCCCCCCC(=O)O [HSA, hexacosanoic acid]
VZV yield relative to no treatment (NT) [4]: improved virus yields in comparison to no treatment
VZV yield relative to no treatment (NT) [1]: elevated the yield of VZV

CC/C=C\C/C=C\C/C=C\C/C=C\C/C=C\CCCC(=O)O [EPA, eicosapentaenoic acid]
HCMV yield, fold change relative to no treatment (NT) [2, 5]: 2.5 fold

CC/C=C\C/C=C\C/C=C\CCCCCCCC(=O)O [LLA, α-linolenic acid]
HCMV yield, fold change relative to no treatment (NT) [2, 5]: about 1.2 fold
HCMV yield, fold change relative to no treatment (NT) [2, 7]: reduced

CCCCCCCC/C=C\CCCCCCCC(=O)O [OA, oleic acid]
Cytotoxicity / cellular toxicity [3]: without causing observable cellular toxicity
VZV production, factor of reduction ([4]; 100 μM): 2
HCMV yield, fold change relative to no treatment (NT) [2, 5]: reduced the yield of HCMV
HCMV yield, fold change relative to no treatment (NT) [2, 7]: reduced

Cc1c(C)c2c(c(C)c1O)CC[C@@](C)(CCC[C@H](C)CCC[C@H](C)CCCC(C)C)O2 [alpha-tocopherol]
HCMV production relative to no treatment (NT) ([2]; Example 2, FIG. 2, scavenging compound alone from 2 h after infection, MRC5, 96 h): enhances the production of HCMV

CCCCCCCCCCCCCCCCCCCCCCCCCCCC(=O)O [OSA, octacosanoic acid]
VZV yield relative to no treatment (NT) [4]: improved virus yields in comparison to no treatment
